# From ChEMBL document CHEMBL1142500, “'Reverse' alpha-ketoamide-based p38 MAP kinase inhibitors” (Bioorg Med Chem Lett, 2008)
# What was measured:
# THP-1 = test: Inhibition of LPS-induced TNFalpha production in human THP1 cells; type: functional, cell-based
# [1] = molecular target: T1, Mitogen-activated protein kinase 14 (Homo sapiens, UniProt Q16539); test: Inhibition of human p38alpha
# [2] = molecular target: T1, Mitogen-activated protein kinase 14; test: Inhibition of human p38alpha phosphorylation
# [3] = Tmax in rat at 30 mg/kg, po; type: ADME, organism-based; parameters: dose 30 mg/kg, route oral; settings: in vivo
# [4] = Cmax in rat at 30 mg/kg, po; type: ADME, organism-based; parameters: dose 30 mg/kg, route oral; settings: in vivo
# [5] = Half life in rat at 30 mg/kg, po; type: ADME, organism-based; parameters: dose 30 mg/kg, route oral; settings: in vivo
# [6] = AUC in rat at 30 mg/kg, po; type: ADME, organism-based; parameters: dose 30 mg/kg, route oral; settings: plasma
# [7] = Oral bioavailability in rat at 30 mg/kg; type: ADME, organism-based; settings: in vivo
# [8] = Clearance in rat at 10 mg/kg, iv; type: ADME, organism-based; parameters: dose 10 mg/kg, route intravenous; settings: in vivo
# [9] = Volume of distribution at steady state in rat at 10 mg/kg, iv; type: ADME, organism-based; parameters: dose 10 mg/kg, route intravenous; settings: in vivo, read-out: Vdss
# T1 sequence (Q16539 whole entry): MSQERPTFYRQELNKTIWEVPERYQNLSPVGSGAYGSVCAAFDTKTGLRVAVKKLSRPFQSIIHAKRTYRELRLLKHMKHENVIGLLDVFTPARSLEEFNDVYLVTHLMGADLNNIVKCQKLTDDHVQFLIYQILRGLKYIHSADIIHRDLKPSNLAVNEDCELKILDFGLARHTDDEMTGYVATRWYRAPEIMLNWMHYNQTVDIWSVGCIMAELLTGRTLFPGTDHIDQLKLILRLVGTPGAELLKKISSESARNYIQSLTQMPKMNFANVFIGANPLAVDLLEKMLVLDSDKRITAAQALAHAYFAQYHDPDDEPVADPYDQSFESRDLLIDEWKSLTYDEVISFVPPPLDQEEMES
Compound,IC50 (THP-1),IC50 [1],IC50 [2],other results
Cn1nc(C(C)(C)C)cc1NC(=O)C(=O)c1ccc(-c2ccc(CN3CCOCC3)nc2)c2ccccc12,850 nM,,,
Cn1nc(C(C)(C)C)cc1C(=O)C(=O)Nc1ccc(OCCN2CCOCC2)c2ccccc12,70 nM,14 nM,70 nM,
Cc1cccc(-n2nc(C(C)(C)C)cc2/C(=N/O)C(=O)Nc2ccc(OCCN3CCOCC3)c3ccccc23)c1,49 nM,59 nM,100 nM,Tmax [3]: 1.5 h; Cmax [4]: 4000 ng/mL; half-life [5]: 2.9 h; AUC [6]: 26000 ng·h/mL; bioavailability [7]: 54%; clearance [8]: 10.2 mL/min/kg; Vd [9]: 1.5 L/kg
CC(C)(C)c1cc(C(=O)C(=O)Nc2ccc(OCCN3CCOCC3)c3ccccc23)n(-c2ccc(F)c(F)c2)n1,180 nM,,,
Cn1nc(C(C)(C)C)cc1NC(=O)C(=O)c1ccc(OCCN2CCOCC2)c2ccccc12,440 nM,,,
Cc1ccc(-n2nc(C(C)(C)C)cc2/C(=C/O)C(=O)Nc2ccc(OCCN3CCOCC3)c3ccccc23)cc1,3300 nM,,,

# Continued, in another order:
IC50 (THP-1),IC50 [1],IC50 [2],Compound,other results
61 nM,22 nM,270 nM,Cc1oc(C(C)(C)C)cc1C(=O)C(=O)Nc1ccc(OCCN2CCOCC2)c2ccccc12,
59 nM,,,Cc1oc(C(C)(C)C)cc1C(=O)C(=O)Nc1ccc(Nc2ccncn2)c2ccccc12,
330 nM,,,Cc1ccc(-n2nc(C(C)(C)C)cc2C(=O)C(=O)Nc2ccc(OCCN3CCOCC3)c3ccccc23)cc1,
280 nM,,,Cc1cccc(-n2nc(C(C)(C)C)cc2C(=O)C(=O)Nc2ccc(OCCN3CCOCC3)c3ccccc23)c1,
9 nM,59 nM,20 nM,Cc1oc(C(C)(C)C)cc1C(=O)C(=O)Nc1ccc(-c2ccc(CN3CCOCC3)nc2)c2ccccc12,
460 nM,,,Cc1oc(C(C)(C)C)cc1C(=O)C(=O)Nc1ccc(Nc2ncccn2)c2ccccc12,
